Laboratory results published in article PMC7722354, “7-Substituted 2-Nitro-5,6-dihydroimidazo[2,1-b][1,3]oxazines: Novel Antitubercular Agents Lead to a New Preclinical Candidate for Visceral Leishmaniasis” (Journal of Medicinal Chemistry, 2017).
Converted amounts (≈) assume the structure as drawn.

Columns and labels:
M. tb, strain H37Rv [1] = test: LORA minimum inhibitory concentration assay (hypoxic); type: cell-based; settings: Mycobacterium tuberculosis
Leishmania donovani = test: L. don amastigote mouse macrophage-based luciferase assay (CDRI); type: cell-based; settings: in mouse macrophages, single test (CDRI)
M. tb, strain H37Rv [2] = test: MABA minimum inhibitory concentration assay (aerobic); type: cell-based, Mycobacterium tuberculosis
[3] = Mycobacterium tuberculosis, H37RV, aerobic, read-out: MIC MABA
[4] = Mycobacterium tuberculosis, H37RV, read-out: MIC MABA, aerobic

Compound	MIC (M. tb, strain H37Rv [1]) [µM]	IC50 (Leishmania donovani) [nM]	MIC (M. tb, strain H37Rv [2]; [3]) [µM]	MIC (M. tb, strain H37Rv [2]; [4]) [µM]	MIC (M. tb, strain H37Rv [2]; aerobic, read-out: MIC MABA) [µM]
O=[N+]([O-])c1cn2c(n1)OC(COCc1ccc(OCc3ccccc3)cc1)CC2 (centres unmarked) [compound 22]	3 (≈ 1.19 µg/mL)	50	–	–	–
CC1(COCc2ccc(OCc3ccccc3)cc2)CCn2cc([N+](=O)[O-])nc2O1 (centres unmarked) [compound 23]	1.4 (≈ 0.573 µg/mL)	280	0.2 (≈ 0.0819 µg/mL)	–	–
CC1(COCc2ccc(-c3ccc(OC(F)(F)F)cc3)cc2)CCn2cc([N+](=O)[O-])nc2O1 (centres unmarked) [compound 29]	1.4 (≈ 0.649 µg/mL)	–	–	0.093 (≈ 0.0431 µg/mL)	–
C[C@]1(COCc2ccc(-c3ccc(OC(F)(F)F)cc3)cc2)CCn2cc([N+](=O)[O-])nc2O1 [compound 34, (7R)-7-Methyl-2-nitro-7-({[4′-(trifluoromethoxy)[1,1′-biphenyl]-4-yl]methoxy}methyl)-6,7-dihydro-5H-imidazo[2,1-b][1,3]oxazine]	1.1 (≈ 0.51 µg/mL)	240	–	0.063 (≈ 0.0292 µg/mL)	–
C[C@@]1(COCc2ccc(-c3ccc(OC(F)(F)F)cc3)cc2)CCn2cc([N+](=O)[O-])nc2O1 [compound 38]	6.8 (≈ 3.15 µg/mL)	–	–	0.74 (≈ 0.343 µg/mL)	–
O=[N+]([O-])c1cn2c(n1)OC(COc1ccc(OC(F)(F)F)cc1)CC2 (centres unmarked) [compound 39]	4.7 (≈ 1.69 µg/mL)	40	–	5.2 (≈ 1.87 µg/mL)	–
O=[N+]([O-])c1cn2c(n1)OC(COc1ccc(OCc3ccccc3)cc1)CC2 (centres unmarked) [compound 45]	> 128	20	–	> 128	–
CC1(COc2ccc(OCc3ccccc3)cc2)CCn2cc([N+](=O)[O-])nc2O1 (centres unmarked) [compound 47]	> 128	120	0.44 (≈ 0.174 µg/mL)	–	–
O=[N+]([O-])c1cn2c(n1)OC(COc1ccc(-c3ccc(OC(F)(F)F)cc3)cc1)CC2 (centres unmarked) [compound 53]	0.73 (≈ 0.318 µg/mL)	60	–	0.08 (≈ 0.0348 µg/mL)	–
CC1(COc2ccc(-c3ccc(OC(F)(F)F)cc3)cc2)CCn2cc([N+](=O)[O-])nc2O1 (centres unmarked) [compound 54]	1.3 (≈ 0.584 µg/mL)	520	–	0.11 (≈ 0.0494 µg/mL)	–
O=[N+]([O-])c1cn2c(n1)OC(COc1ccc(-c3ccc(F)cc3)cn1)CC2 (centres unmarked) [compound 59, 7-({[5-(4-Fluorophenyl)pyridin-2-yl]oxy}methyl)-2-nitro-6,7-dihydro-5H-imidazo[2,1-b][1,3]oxazine]	< 0.25	10	–	0.02 to 0.04 (≈ 0.00741 to 0.0148 µg/mL)	0.025 (≈ 0.00926 µg/mL)
CC1(COc2ccc(-c3ccc(F)cc3)cn2)CCn2cc([N+](=O)[O-])nc2O1 (centres unmarked) [compound 61]	1 (≈ 0.384 µg/mL)	90	–	0.17 (≈ 0.0653 µg/mL)	–
CC1(COc2ccc(-c3ccc(F)cc3)nc2)CCn2cc([N+](=O)[O-])nc2O1 (centres unmarked) [compound 90]	3.9 (≈ 1.5 µg/mL)	650	–	0.35 (≈ 0.135 µg/mL)	–
O=[N+]([O-])c1cn2c(n1)OC(COc1ccc(-c3ccc(F)cc3F)nc1)CC2 (centres unmarked) [compound 91]	8.9 (≈ 3.46 µg/mL)	20	–	0.36 (≈ 0.14 µg/mL)	–
O=[N+]([O-])c1cn2c(n1)OC(COc1ccc(-c3ccc(OC(F)(F)F)cc3)nc1)CC2 (centres unmarked) [compound 93]	0.86 (≈ 0.375 µg/mL)	50	–	0.02 to 0.04 (≈ 0.00873 to 0.0175 µg/mL)	0.032 (≈ 0.014 µg/mL)
O=[N+]([O-])c1cn2c(n1)O[C@@H](COc1ccc(-c3ccc(OC(F)(F)F)cc3)nc1)CC2 [compound 94]	1.5 (≈ 0.655 µg/mL)	–	–	0.02 to 0.04 (≈ 0.00873 to 0.0175 µg/mL)	0.024 (≈ 0.0105 µg/mL)
O=[N+]([O-])c1cn2c(n1)O[C@H](COc1ccc(-c3ccc(OC(F)(F)F)cc3)nc1)CC2 [compound 95]	1.6 (≈ 0.698 µg/mL)	–	–	0.34 (≈ 0.148 µg/mL)	–
O=[N+]([O-])c1cn2c(n1)OC(COc1ccc(-c3ccc(F)nc3)cn1)CC2 (centres unmarked) [compound 107]	15 (≈ 5.57 µg/mL)	270	–	0.074 (≈ 0.0275 µg/mL)	–
CC1(COc2ccc(-c3ccc(F)nc3)cn2)CCn2cc([N+](=O)[O-])nc2O1 (centres unmarked) [compound 108]	6.2 (≈ 2.39 µg/mL)	220	–	1.9 (≈ 0.732 µg/mL)	–
O=[N+]([O-])c1cn2c(n1)OC(COC1CCN(c3ccc(F)cc3)CC1)CC2 (centres unmarked) [compound 170]	20 (≈ 7.53 µg/mL)	–	–	0.78 (≈ 0.294 µg/mL)	–
CC1(COC2CCN(c3ccc(F)cc3)CC2)CCn2cc([N+](=O)[O-])nc2O1 (centres unmarked) [compound 178]	19 (≈ 7.42 µg/mL)	–	–	0.37 (≈ 0.144 µg/mL)	–
